The values that follow come from patent US6806077B1 (priority 1997, dated 2004).

Where two headings read alike, the source gives them in different places.

The subject of assay [1] is PrPres. The assay is classed as in vivo. Conditions: C57BL/6 mice inoculated i.p. with strain C506M3; AmB 1 mg/kg from tA+15 days; sacrificed at tA+21 or tA+28; Western blot, versus untreated animals. Background: A western blot detects proteins with antibodies after separation by electrophoresis.
Assay [2] deals with PrPres. The arrangement: species or system C57BL/6 mice. To be noted: mouse, in vivo, ip, 25 mg/kg.

For `C[C@@H]1[C@H](O)[C@@H](C)/C=C/C=C/C=C/C=C/C=C/C=C/C=C/[C@H](O[C@@H]2O[C@H](C)[C@@H](O)[C@H](N)[C@@H]2O)C[C@@H]2O[C@](O)(C[C@@H](O)C[C@@H](O)[C@H](O)CC[C@@H](O)C[C@@H](O)CC(=O)O[C@H]1C)C[C@H](O)[C@H]2C(=O)O` [AmB, amphotericin B], the “inhibition of the accumulation of PrPres in the spleen” value in the assay on PrPres [1] is recorded as “significant inhibition of the accumulation of PrPres”.

In the case of dextran sulphate [DS500], in the assay with PrPres [2], the “inhibition of the accumulation of PrPres in the spleen” value is listed as “significant inhibition of the accumulation of PrPres”.
